Experiment: xn = mol fraction of the nth substance listed
Details: 101 kPa, Liquid, Taylor dispersion method, x1 = 0

| binary diffusion coefficient (293.2 K) [m2/s] | binary diffusion coefficient (298.2 K) [m2/s] | binary diffusion coefficient (303.2 K) [m2/s] | binary diffusion coefficient (313.2 K) [m2/s] | binary diffusion coefficient (323.2 K) [m2/s] | binary diffusion coefficient (333.2 K) [m2/s] | Structure (SMILES) |
| --- | --- | --- | --- | --- | --- | --- |
| 9.36e-10 | 1.06e-09 | 1.22e-09 | 1.5e-09 | 1.86e-09 | 2.22e-09 | NCC(=O)O [2-aminoacetic acid] + O |
| 7.29e-10 | 8.39e-10 | 9.48e-10 | 1.2e-09 | 1.49e-09 | 1.8e-09 | CCC(N)C(=O)O (stereo not drawn) [(.+-.)-α-aminobutyric acid] + O |
| 8.06e-10 | 9.3e-10 | 1.04e-09 | 1.31e-09 | 1.63e-09 | 1.96e-09 | C[C@H](N)C(=O)O [(S)-2-aminopropanoic acid] + O |
| 6.41e-10 | 7.35e-10 | 8.24e-10 | 1.07e-09 | 1.33e-09 | 1.6e-09 | CC(C)C[C@H](N)C(=O)O [L-leucine] + O |

Second part, the compound before the results:

| Structure (SMILES) | binary diffusion coefficient (293.2 K) [m2/s] | binary diffusion coefficient (298.2 K) [m2/s] | binary diffusion coefficient (303.2 K) [m2/s] | binary diffusion coefficient (313.2 K) [m2/s] | binary diffusion coefficient (323.2 K) [m2/s] | binary diffusion coefficient (333.2 K) [m2/s] |
| --- | --- | --- | --- | --- | --- | --- |
| CC[C@H](C)[C@H](N)C(=O)O [2-amino-3-methylpentanoic acid] + O | 6.41e-10 | 7.44e-10 | 8.36e-10 | 1.07e-09 | 1.33e-09 | 1.62e-09 |
| CCCCC(N)C(=O)O (stereo not given) [2-aminohexanoic acid] + O | 6.41e-10 | 7.36e-10 | 8.27e-10 | 1.07e-09 | 1.32e-09 | 1.6e-09 |
| CCC[C@H](N)C(=O)O [(S)-2-aminopentanoic acid] + O | 6.77e-10 | 7.75e-10 | 8.79e-10 | 1.12e-09 | 1.39e-09 | 1.69e-09 |
| CC(C)(C)C(N)C(=O)O (stereo not drawn) [DL-tert-leucine] + O | 6.31e-10 | 7.29e-10 | 8.46e-10 | 1.06e-09 | 1.33e-09 | 1.61e-09 |
| CC(C)[C@H](N)C(=O)O [L-valine] + O | 6.76e-10 | 7.77e-10 | 8.91e-10 | 1.12e-09 | 1.4e-09 | 1.7e-09 |
| CC[C@@H](C)[C@H](N)C(=O)O [allo-L-isoleucine] + O | 6.42e-10 | 7.38e-10 | 8.44e-10 | 1.07e-09 | 1.33e-09 | 1.61e-09 |

— the NIST ThermoML archive (doi:10.1021/je060149b)
